Columns and labels:
[1] = system: Carrageenan-Induced Ankle/Paw Inflammation; experiment: Model of Carrageenan-Induced Ankle/Paw Inflammation (1); assay type: in vivo, SWISS mice; details: DEX 1 mg/kg, OB 1*10^6, FIG. 3
Procedure: Sigma, Switzerland) in PBS into the hind paw of 8 weeks old SWISS mice; each animal receiving a single injection in each hind paw (Table 3). […] Sigma Switzerland) at a concentration of 1 mg/kg, or 1*10^6 human bone-forming cells (OB) (derived from bone marrow mesenchymal stromal cells as described in Example 1A) or a combination of DEX and OB. [table]

[2] = system: Carrageenan-Induced Ankle/Paw Inflammation; experiment: Model of Carrageenan-Induced Ankle/Paw Inflammation (2); assay type: in vivo, SWISS mice; details: DEX 1 mg/kg, OB 1*10^6, FIG. 4
Procedure: Inflammation was induced by injection of a solution containing 1% lambda carrageenan (CARRA; Sigma, Switzerland) in PBS into the hind paw of 8 weeks old SWISS mice; each animal receiving a single injection in each hind paw (Table 4). Carrageenan injected animals received immediately after injection or PBS only, or a solution of Dexamethasone (DEX; Sigma Switzerland) at a concentration of 1 mg/kg, or 1*10^6 human bone-forming cells (OB) (derived from bone marrow mesenchymal stromal cells as described in Example 1A).
Under isoflurane sedation, the circumference of ankles and paws was measured using a digital caliper before the injection at T0 and at T1, T4, T6 and T24; respectively before CARRA administration, and 1 h, 4 h, 6 h and 24 hours after the injection.

C[C@@H]1C[C@H]2[C@@H]3CCC4=CC(=O)C=C[C@]4(C)[C@@]3(F)[C@@H](O)C[C@]2(C)[C@@]1(O)C(=O)CO [Dexamethasone]
inhibition of inflammation (ankle diameter) ([1]; 1 h after carrageenan): 100% | inhibition of inflammation (ankle diameter) ([1]; 4 h after carrageenan): 100% | inhibition of inflammation (paw diameter) ([2]; 1 h after carrageenan): 100% | inhibition of inflammation (paw diameter) ([2]; 6 h after carrageenan): 70% | inhibition of inflammation (paw diameter) ([2]; 24 h after carrageenan): 38%

Reference: patent publication US20100272696A1, “Human Bone-Forming Cells In The Treatment of Inflammatory Rheumatic Diseases” (BONE THERAPEUTICS S.A., priority 2007, published 2010)
